This is an account of results in patent publication US6509011B1, “Method of hair treatment using organic amino compounds” (Unilever Home & Personal Care USA, division of Conopco, Inc., priority 1999, dated 2003).

A short description of the experiment: Cuticle abrasion of treated hair switches. The method, then:
Cuticle abrasion and sensory experiments were performed on bleached hair with unbleached “virgin” hair as a control.
A shampoo base was used to treat hair switches:
Two samples of the above formulation were prepared, with the addition of 0.2% arginine to one of the samples.
Four sets of switches were used and treated as follows:
Set 1. Bleached switches washed 6 times in base, with final base wash containing 0.2% arginine.
Set 2. Bleached switches based washed 6 times in base with 0.2% arginine
Set 3. Bleached switches washed 6 times in base without 0.2% arginine
Set 4. Unbleached virgin hair washed in base without arginine.
The treated samples were subjected to cuticle abrasion (in duplicate).

`N=C(N)NCCC[C@H](N)C(=O)O` [arginine]: the “cuticle cohesion after cuticle abrasion” value reads like this: (set 1: bleached switches washed 6 times in base, only final wash containing 0.2% arginine) “evidence of improved cuticle cohesion”; (set 2: bleached switches washed 6 times in shampoo base with 0.2% arginine, compared with set 3 (base without arginine)) “significantly better cuticle cohesion”. Further, the “amount of cuticle removed by abrasion” value (set 1: bleached switches washed 6 times in base, only final wash containing 0.2% arginine, compared with set 3 (no arginine)) was “Significantly less cuticle was removed than set 3”. The “removed cuticle sample size and appearance” value (set 2: bleached switches washed 6 times in shampoo base with 0.2% arginine) was “closer in sample size and appearance to the unbleached sample”.
